Results taken from ChEMBL document CHEMBL1201862, “PubChem BioAssay data set” (2004).
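48-hour exposure; five concentrations; linearly interpolated endpoints. GI50 marks 50% less growth.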 Calls of active or inactive are those of the source. Rule as the data show it: active = GI50 up to about 1.1 µM and inactive = higher.

How the values were obtained:
Assay in all cases: NCI tumour cell line growth inhibition, 48 h
SK-OV-3 = system: SK-OV-3
UACC-257 = system: UACC-257
U-251 = system: U-251
EKVX = system: EKVX
HT-29 = system: HT-29
IGROV-1 = system: IGROV-1
T47D = system: T47D
PC-3 = system: PC-3
OVCAR-3 = system: OVCAR-3
MOLT-4 = system: MOLT-4
SNB-75 = system: SNB-75
HCT-116 = system: HCT-116
Malme-3M = system: Malme-3M
UACC-62 = system: UACC-62
NCI/ADR-RES = system: NCI/ADR-RES
A498 = system: A498
RXF 393 = system: RXF 393
786-0 = system: 786-0
SK-MEL-2 = system: SK-MEL-2
SR = system: SR

| Structure (SMILES) | GI50 (SK-OV-3) | GI50 (UACC-257) | GI50 (U-251) | GI50 (EKVX) | GI50 (HT-29) | GI50 (IGROV-1) | GI50 (T47D) | GI50 (PC-3) | GI50 (OVCAR-3) | GI50 (MOLT-4) | GI50 (SNB-75) | GI50 (HCT-116) | GI50 (Malme-3M) | GI50 (UACC-62) | GI50 (NCI/ADR-RES) | GI50 (A498) | GI50 (RXF 393) | GI50 (786-0) | GI50 (SK-MEL-2) | GI50 (SR) |
| --- | --- | --- | --- | --- | --- | --- | --- | --- | --- | --- | --- | --- | --- | --- | --- | --- | --- | --- | --- | --- |
| O=C(NNCC(O)COc1ccccc1)c1ccccc1 (configuration not stated) | > 100 µM (inactive) | > 100 µM (inactive) | > 100 µM (inactive) | > 100 µM (inactive) | > 100 µM (inactive) | > 100 µM (inactive) | > 100 µM (inactive) | > 100 µM (inactive) | > 100 µM (inactive) | > 100 µM (inactive) | > 100 µM (inactive) | > 100 µM (inactive) | > 100 µM (inactive) | > 100 µM (inactive) | > 100 µM (inactive) | > 100 µM (inactive) | > 100 µM (inactive) | > 100 µM (inactive) | > 100 µM (inactive) |  |
| Nc1c(S(N)(=O)=O)cc(S(N)(=O)=O)cc1S(N)(=O)=O | > 100 µM (inactive) | > 100 µM (inactive) | > 100 µM (inactive) | > 100 µM (inactive) | > 100 µM (inactive) | > 100 µM (inactive) | > 100 µM (inactive) | 61.1 µM (inactive) | > 100 µM (inactive) | > 100 µM (inactive) | > 100 µM (inactive) | > 100 µM (inactive) | > 100 µM (inactive) | > 100 µM (inactive) | > 100 µM (inactive) | > 100 µM (inactive) | > 100 µM (inactive) | > 100 µM (inactive) |  |  |
| CCCCCCCCCC(=O)CC(=O)c1c(O)cc(O)cc1O | 35 µM (inactive) | 23.4 µM (inactive) | 23.8 µM (inactive) | 31.5 µM (inactive) | 17.1 µM (inactive) | 26.5 µM (inactive) | 34.7 µM (inactive) | 17.9 µM (inactive) | 16.4 µM (inactive) | 12.9 µM (inactive) | 22.2 µM (inactive) | 24.4 µM (inactive) | 14.4 µM (inactive) |  | 16.6 µM (inactive) | 22.6 µM (inactive) | 11.7 µM (inactive) | 28 µM (inactive) | 17.7 µM (inactive) |  |
| CCCNc1ncnc2c1ncn2C | > 100 µM (inactive) | > 100 µM (inactive) | > 100 µM (inactive) | > 100 µM (inactive) |  | 54.7 µM (inactive) | 44.4 µM (inactive) | > 100 µM (inactive) | 58.5 µM (inactive) | 45.3 µM (inactive) | 38.5 µM (inactive) | > 100 µM (inactive) | 45.3 µM (inactive) | 45.1 µM (inactive) | 68.4 µM (inactive) | 22.9 µM (inactive) | > 100 µM (inactive) | 48.8 µM (inactive) | > 100 µM (inactive) |  |
| CC(NC(=O)C(C)C(=O)Nc1ccc(C(F)(F)F)cc1)C(N)=O (configuration not stated) | > 100 µM (inactive) | > 100 µM (inactive) | > 100 µM (inactive) | > 100 µM (inactive) | > 100 µM (inactive) | > 100 µM (inactive) | > 100 µM (inactive) | > 100 µM (inactive) |  | > 10 µM (inactive) | > 100 µM (inactive) | > 100 µM (inactive) | > 100 µM (inactive) | > 100 µM (inactive) | > 100 µM (inactive) |  | > 100 µM (inactive) | > 100 µM (inactive) | > 100 µM (inactive) | > 10 µM (inactive) |
| CCOC(=O)COc1c(OC)cc(C2C3=C(COC3=O)Oc3cc4c(cc32)OCO4)cc1OC (configuration not stated) | 3.17 µM (inactive) | 9.77 µM (inactive) | 0.499 µM (active) | 4.02 µM (inactive) | 0.927 µM (active) | 1.83 µM (inactive) | 2.54 µM (inactive) | 1.87 µM (inactive) | 0.528 µM (active) | 0.417 µM (active) | 4.62 µM (inactive) | 0.773 µM (active) | 57.8 µM (inactive) | 1.69 µM (inactive) | 3.37 µM (inactive) |  |  | 2.77 µM (inactive) | 8.75 µM (inactive) | 0.995 µM (active) |
| CN(c1c(Cl)cccc1Cl)S(=O)(=O)c1ccccc1[N+](=O)[O-] | > 100 µM (inactive) | > 100 µM (inactive) | > 100 µM (inactive) | > 100 µM (inactive) | > 100 µM (inactive) | > 100 µM (inactive) | > 100 µM (inactive) | > 100 µM (inactive) | > 100 µM (inactive) | > 100 µM (inactive) | > 100 µM (inactive) | > 100 µM (inactive) | > 100 µM (inactive) | > 100 µM (inactive) | > 100 µM (inactive) |  | > 100 µM (inactive) | > 100 µM (inactive) | > 100 µM (inactive) | > 100 µM (inactive) |
| CCCN(CCC)C(=S)Sc1nc(C)nc(N2CCN(c3nc(C)nc(SC(=S)N(CCC)CCC)c3[N+](=O)[O-])CC2)c1[N+](=O)[O-] | 56.4 µM (inactive) | 15.6 µM (inactive) | 6.5 µM (inactive) | 30.5 µM (inactive) | 2.07 µM (inactive) | 11.4 µM (inactive) | 8.2 µM (inactive) | 15.2 µM (inactive) |  | 3.23 µM (inactive) | 27.5 µM (inactive) | 2.03 µM (inactive) | 18.8 µM (inactive) | 7.94 µM (inactive) | 41.5 µM (inactive) |  | 4.19 µM (inactive) | 3.62 µM (inactive) | 7.16 µM (inactive) | 1.07 µM (active) |
| CC(=O)Nc1ccc(OC/C(N)=N/NC(=O)c2ccncc2)cc1 | > 100 µM (inactive) | > 100 µM (inactive) | > 100 µM (inactive) | > 100 µM (inactive) | > 100 µM (inactive) | > 100 µM (inactive) | > 100 µM (inactive) | > 100 µM (inactive) | > 100 µM (inactive) | > 100 µM (inactive) | 29.1 µM (inactive) | > 100 µM (inactive) |  | > 100 µM (inactive) | > 100 µM (inactive) | > 100 µM (inactive) | > 100 µM (inactive) | > 100 µM (inactive) | > 100 µM (inactive) |  |
| N=C(/C=C/c1ccc(-c2cn3cc(/C=C/C(=N)N4CCOCC4)ccc3n2)cc1)N1CCOCC1 | > 100 µM (inactive) | > 100 µM (inactive) | > 100 µM (inactive) | > 100 µM (inactive) |  | > 100 µM (inactive) | > 100 µM (inactive) | > 100 µM (inactive) | > 100 µM (inactive) |  | > 100 µM (inactive) | > 100 µM (inactive) | > 100 µM (inactive) | > 100 µM (inactive) | > 100 µM (inactive) | > 100 µM (inactive) | > 100 µM (inactive) | > 100 µM (inactive) | > 100 µM (inactive) |  |
| Cc1ccc(CS(=O)(=O)C/N=C2\Sc3ccccc3N\C2=C/C(=O)c2ccc(Cl)cc2)cc1 | > 10 µM (inactive) | > 10 µM (inactive) | > 10 µM (inactive) |  | > 10 µM (inactive) | > 10 µM (inactive) | 1.71 µM (inactive) | > 10 µM (inactive) | > 10 µM (inactive) | 6.08 µM (inactive) | 3.86 µM (inactive) | > 10 µM (inactive) | > 10 µM (inactive) | > 10 µM (inactive) | > 10 µM (inactive) |  |  | > 10 µM (inactive) |  | > 10 µM (inactive) |
| Cc1n[n+](Cc2ccccc2)c2sc(N)nn12 | 85.9 µM (inactive) | > 100 µM (inactive) | > 100 µM (inactive) | > 100 µM (inactive) | 59 µM (inactive) | > 100 µM (inactive) | > 100 µM (inactive) | > 100 µM (inactive) | > 100 µM (inactive) | 58.9 µM (inactive) | > 100 µM (inactive) | 76.4 µM (inactive) | > 100 µM (inactive) | 10.2 µM (inactive) | > 100 µM (inactive) | > 100 µM (inactive) | > 100 µM (inactive) | > 100 µM (inactive) | > 100 µM (inactive) |  |
| COC(=O)[C@H](C)NC(=O)[C@H](CSC)N1C(=O)N[C@@H](C(C)C)C1=O | > 100 µM (inactive) | > 100 µM (inactive) | > 100 µM (inactive) | > 100 µM (inactive) | > 100 µM (inactive) | > 100 µM (inactive) | > 100 µM (inactive) | > 100 µM (inactive) | > 100 µM (inactive) | 32.7 µM (inactive) | 12.5 µM (inactive) | > 100 µM (inactive) | 49 µM (inactive) | > 100 µM (inactive) | > 100 µM (inactive) |  | > 100 µM (inactive) | > 100 µM (inactive) | > 100 µM (inactive) | > 100 µM (inactive) |
| COc1cc(N(CCC#N)CCC#N)ccc1C(/N=N/c1cccc([N+](=O)[O-])c1)=N\NC(=O)c1ccc(C)cc1 | > 100 µM (inactive) | 14.5 µM (inactive) | > 100 µM (inactive) | 10.4 µM (inactive) | 92 µM (inactive) | > 100 µM (inactive) | 27.8 µM (inactive) | > 100 µM (inactive) | 96.8 µM (inactive) | 16.9 µM (inactive) |  | 50.5 µM (inactive) | > 100 µM (inactive) | > 100 µM (inactive) | 67.5 µM (inactive) | > 100 µM (inactive) | > 100 µM (inactive) | > 100 µM (inactive) | > 100 µM (inactive) |  |
| CC1=NN(c2nc(N)nc(CSc3cc(Cl)c(C)cc3S(N)(=O)=O)n2)C(C)(C)C1 | > 10 µM (inactive) | > 10 µM (inactive) | > 10 µM (inactive) | > 10 µM (inactive) | > 10 µM (inactive) | > 10 µM (inactive) | > 10 µM (inactive) | > 10 µM (inactive) | > 10 µM (inactive) | > 10 µM (inactive) | > 10 µM (inactive) | > 10 µM (inactive) | > 10 µM (inactive) | > 10 µM (inactive) | > 10 µM (inactive) | > 10 µM (inactive) | > 10 µM (inactive) | > 10 µM (inactive) | > 10 µM (inactive) |  |
